Columns and labels:
Type in all cases: cell-based
[1] = system: B16/F10 melanoma cells and human umbilical vein endothelial cells; test: Effect of VEGF and HGF on tumor angiogenesis in vitro, co-culture on matrigel; details: growth factor added to co-culture on matrigel
Procedure: Protocol: For setting up the system, human umbilical vein endothelial cells, pooled from three donors, were purchased from Cambrex, and used between passages 3-6. The cells were grown in endothelial basal medium supplemented with 20% fetal bovine serum (FBS) and bulletkit-2 (Sengupta et al. Cancer Res. 63 (23):8351-59, Dec. 1, 2003). For the tumor component, we used B16/F10 melanoma cells as the model cell line, which were stably transfected to express green fluorescent protein. Plasmid expressing enhanced green fluorescent protein (pEGFP-C2, Clontech) was linearized and lipofected (Lipofectamine 2000, Invitrogen) into B16-F10 cells. The stably integrated clones of B16-F10 cells were selected by 800 μg/ml G418. The green fluorescence of the G418 resistant clones was further confirmed by Flow Cytometry and epifluorescence microscopy. The GFP-B16/F10 cells were regularly cultured in DMEM supplemented with 5% FBS. […] The coverslips were mounted with antifade, and analysed with a LSM510 Zeiss confocal microscope. […] Quantification of the area covered by the endothelial cells or GFP-BL6/F10 cells was carried out using a planimetric point-count method using a 224-intersection point square reticulum. Data were expressed as the ratio of each component to the total area covered by cells. […]

[2] = system: B16/F10 melanoma cells and human umbilical vein endothelial cells; test: VEGF-induced response in co-culture assay plated on collagen
Description: (§1) Protocol: For setting up the system, human umbilical vein endothelial cells, pooled from three donors, were purchased from Cambrex, and used between passages 3-6. […] For the tumor component, we used B16/F10 melanoma cells as the model cell line, which were stably transfected to express green fluorescent protein. Plasmid expressing enhanced green fluorescent protein (pEGFP-C2, Clontech) was linearized and lipofected (Lipofectamine 2000, Invitrogen) into B16-F10 cells. […] The GFP-B16/F10 cells were regularly cultured in DMEM supplemented with 5% FBS. Sterile glass coverslips (Corning) were coated with matrigel (extracellular matrix extracted from murine Englebreth-Holms sarcoma, diluted 1:3 in phosphate buffer saline; Becton Dickinson) or collagen (type I from rat's tail, Becton Dickinson). Synchronized human umbilical vein endothelial cells were trypsinised and plated on the coverslips at a density of 2×10^4 cells per well. The cells were allowed to adhere for 24 hours in endothelial basal media supplemented with 20% fetal bovine serum. […] The coverslips were mounted with antifade, and analysed with a LSM510 Zeiss confocal microscope. […] Data were expressed as the ratio of each component to the total area covered by cells.

[3] = system: B16/F10 melanoma cells and human umbilical vein endothelial cells; test: HGF-induced response in co-culture assay plated on collagen
Description: as §1

[4] = system: B16/F10 melanoma cells and human umbilical vein endothelial cells; test: HGF/SF-induced response in co-culture assay on matrigel
Description: (§2) Protocol: For setting up the system, human umbilical vein endothelial cells, pooled from three donors, were purchased from Cambrex, and used between passages 3-6. […] For the tumor component, we used B16/F10 melanoma cells as the model cell line, which were stably transfected to express green fluorescent protein. Plasmid expressing enhanced green fluorescent protein (pEGFP-C2, Clontech) was linearized and lipofected (Lipofectamine 2000, Invitrogen) into B16-F10 cells. […] The GFP-B16/F10 cells were regularly cultured in DMEM supplemented with 5% FBS. Sterile glass coverslips (Corning) were coated with matrigel (extracellular matrix extracted from murine Englebreth-Holms sarcoma, diluted 1:3 in phosphate buffer saline; Becton Dickinson) or collagen (type I from rat's tail, Becton Dickinson). Synchronized human umbilical vein endothelial cells were trypsinised and plated on the coverslips at a density of 2×10^4 cells per well. The cells were allowed to adhere for 24 hours in endothelial basal media supplemented with 20% fetal bovine serum. At this time point, the media was replaced with EBM supplemented with 1% serum, and green fluorescent protein-expressing B16/F10 cells were added to the system at a density of 5×10^3 cells per well. The co-culture was allowed to incubate overnight, following which different treatments were added to the media. At 24 hours post-treatment, the cells were fixed in paraformaldehyde (4% on ice, for 20 min), and stained with propidium iodide. The coverslips were mounted with antifade, and analysed with a LSM510 Zeiss confocal microscope. […] Data were expressed as the ratio of each component to the total area covered by cells.

[5] = system: B16/F10 melanoma cells and human umbilical vein endothelial cells; test: VEGF-induced response in co-culture assay on matrigel; parameters: VEGF-induced endothelial network: dose or concentration left out as unconfirmed; details: for effect on tumor cells: Doxorubicin 10-50 μM
Description: as §2

Row | Compound | vascular network [1] | HGF/SF-induced response (endothelial network) [4] | VEGF-induced angiogenesis / vascular network [5] | effect on tumor cells [5] | further results
1 | HGF/SF: growth factor added to the co-culture | significant increase in the vascular network | – | – | – | –
2 | O=C1CCC(N2C(=O)c3ccccc3C2=O)C(=O)N1 (centres unmarked) [thalidomide] | – | failed to inhibit the HGF-induced effect | collapse of the VEGF-induced vascular network | without affecting the tumor cells | angiogenic effects of VEGF [2]: inhibited the angiogenic effects of VEGF; endothelial cell loss ([3]; HGF/SF): induced endothelial cell loss
3 | VEGF | significant increase in the vascular network | – | – | – | –
4 | Clc1ccc(Nc2nnc(Cc3ccncc3)c3ccccc23)cc1 [PTK787] | – | no effect on the HGF/SF-induced response | blocked | – | –
5 | COc1cccc2c1C(=O)c1c(O)c3c(c(O)c1C2=O)C[C@@](O)(C(=O)CO)C[C@@H]3O[C@H]1C[C@H](N)[C@H](O)[C@H](C)O1 [Doxorubicin] | – | – | – | selective ablation of the tumor cells in a concentration-dependent manner | tumor cell death ([2]; VEGF-treated co-culture): induced tumor cell death; tumor cell death ([3]; HGF/SF-treated co-culture): induced tumor cell death; tumor cell death [4]: selective induction of tumor cell death; VEGF-induced endothelial network ([5]; highest concentration used): no effect on the VEGF-induced endothelial network
